# Source: PubChem BioAssay AID1949 (Southern Research Institute, 2009)
# Inconclusive results are not listed. Calls of active or inactive are those of the source. No rule for the calls is given here.
# System: M. tuberculosis H37Rv growth inhibition
# Assay: Confirmatory growth inhibition assay against Mycobacterium tuberculosis H37Rv, potency (AID 1949);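 also: bacteria grown 7 days with compound before Alamar blue readout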
row,Structure (SMILES),IC50
1,C#CCOc1c(Cl)cc(/C=C/[N+](=O)[O-])cc1OC,29.4 µg/mL
2,O=C(Oc1ccc(F)cc1)c1sc2ccccc2c1Cl,3.07 µg/mL
3,CCC(C(=O)O/N=C(\N)Cc1cccc2ccccc12)c1ccccc1 (centres undefined),10.1 µg/mL
4,O=C(CSc1nnc(-c2ccccc2)o1)N1CCc2ccccc2C1,9.27 µg/mL
5,O=C(CC12CC3CC(CC(C3)C1)C2)Nc1cccc(Cl)c1,3.34 µg/mL
6,CC(C)c1ccc(OCC(=O)Nc2nc(C(C)(C)C)cs2)cc1,3.87 µg/mL
7,Cc1ccc(-c2nc3ccc(Br)cc3c(=O)o2)cc1C,> 50 µg/mL (inactive)
8,COC(=O)COc1ccc(NC(=O)c2ccccc2C)cc1,< 0.1 µg/mL
9,CC1CCc2c(sc3ncn(C(C)C(=O)OCc4ccccc4)c(=O)c23)C1 (centres undefined),1.53 µg/mL
10,CCC(C(=O)Nc1ccc(CC(=O)OC)cc1)c1ccccc1 (centres undefined),0.69 µg/mL
11,CC(C)(C)C(=O)NC(=S)NNC(=O)C(c1ccccc1)c1ccccc1,3.01 µg/mL
12,COC(=O)c1sccc1NC(=O)c1c(F)c(F)c(F)c(F)c1F,0.21 µg/mL
13,CCOC(=O)COc1ccc2c(=O)c(-c3ccccc3Cl)c(C)oc2c1C,0.98 µg/mL
14,Cc1ccc(NS(=O)(=O)c2ccc(NC(=S)NC(=O)c3ccc(F)cc3)cc2)c(C)c1,8.09 µg/mL
15,Cc1nc2c(-c3ccc(Cl)cc3)cnn2c(N)c1-c1ccccc1,0.84 µg/mL
16,COC(=O)CSc1nc(-c2ccccc2)c(-c2ccccc2)o1,5.58 µg/mL
17,CCOC(=O)C(C)Oc1ccc2c(-c3ccc(OC)cc3)cc(=O)oc2c1 (centres undefined),1.35 µg/mL
18,Cc1ccc(NC(=O)C2C3CC/C=C\CC/C=C/CCC32)cc1C (centres undefined),23.6 µg/mL
19,Clc1ccccc1COc1ccc2ccccc2c1CNCc1cccnc1,8.75 µg/mL
20,CCOc1ccc(NCCC(=O)c2ccc3c(c2)OCO3)cc1,3.32 µg/mL
21,COc1ccc(NC(=O)CC23CC4CC(CC(C4)C2)C3)cc1Cl,3.05 µg/mL

row,Structure (SMILES),IC50
1,COC(=O)COc1ccc2c(-c3cccc([N+](=O)[O-])c3)cc(=O)oc2c1,0.34 µg/mL
2,Cc1cc(C(=O)Oc2ccc(Cc3ccccc3)cc2)ccc1[N+](=O)[O-],2.23 µg/mL
3,COc1cc(NC(=S)N2CCN(C)CC2)cc(OC)c1,> 50 µg/mL (inactive)
4,Cc1ccc2nc(-c3cccc(NC(=O)c4cccs4)c3)[nH]c2c1,7.08 µg/mL
5,Cc1ccc(NC(=S)c2ccccn2)c(C)c1,4.22 µg/mL
6,CCc1c(C)sc(NC(=S)NC2CCN(Cc3ccccc3)CC2)c1C(=O)OC,1.69 µg/mL
7,CN1CCN(c2nc(N3CCCc4ccccc43)nc(N3CCCc4ccccc43)n2)CC1,5.33 µg/mL
8,CC(=O)c1cccc(-n2nnnc2S(C)(=O)=O)c1,2.75 µg/mL
9,O=C(CSc1nnc(-c2cccnc2)o1)c1ccc(Oc2ccccc2)cc1,> 50 µg/mL (inactive)
10,COc1ccc(-n2nc3ccc(NC(=O)c4ncn[nH]4)cc3n2)cc1Cl,> 50 µg/mL (inactive)
11,Cc1[nH]n(-c2ccccc2)c(=S)c1C=Nc1ccccc1O,2.35 µg/mL
12,O=c1c2cc(I)ccc2nc(/C=C/c2cccnc2)n1CCc1ccccc1,31.4 µg/mL
13,CCc1ccc(C(=O)NC(=S)Nc2ccc(C(=O)OC)cc2)cc1,3.98 µg/mL
14,COC(C)(C)C#CC(=O)c1cccc2ccccc12,2.78 µg/mL
15,O=C(OCc1ccccc1Cl)C1(O)c2ccccc2-c2ccccc21,2.76 µg/mL
16,COc1ccc(C23CC4CC(CC(C4)C2)C3)cc1C(=O)NCCN(C)C,10.8 µg/mL
17,c1cc2c3c(cccc3c1)NC1(CCCCCC1)N2,> 50 µg/mL (inactive)
18,CCSCC(=O)N1CCN(c2nnc(-c3ccccc3)c3ccccc23)CC1,14.5 µg/mL
19,CN(C)S(=O)(=O)c1ccc(NC(=S)NC(=O)CCCOc2ccc(Cl)cc2Cl)cc1,5.38 µg/mL
20,c1ccc(CNc2nc(N3CCN(Cc4ccccc4)CC3)nc3ccccc23)cc1,1.5 µg/mL
21,COc1ccccc1NC(=O)c1cnc(SC)nc1,3.97 µg/mL

row,Structure (SMILES),IC50
1,COc1cccc(N2C(=O)c3cccc4cc([N+](=O)[O-])cc(c34)C2=O)c1,11 µg/mL
2,Cc1cccc(OC(C)C(=O)Nc2ccc([N+](=O)[O-])cc2)c1C (centres undefined),3.13 µg/mL
3,CCOc1ccc(Nc2nc(-c3ccccn3)cs2)cc1,< 0.1 µg/mL
4,O=S(=O)(Nc1cc(Sc2cccc3cccnc23)c(O)c2ccccc12)c1ccccc1,0.18 µg/mL
5,Cc1cc(C(=O)NCC23CC4CC(CC(C4)C2)C3)ccc1[N+](=O)[O-],0.42 µg/mL
6,CCN(CC)S(=O)(=O)c1ccc(Cl)c(C(=O)Oc2cccc3cccnc23)c1,2.45 µg/mL
7,COC(=O)C(Oc1ccc2c(c1)oc(=O)c1cc(OC)ccc12)c1ccccc1 (centres undefined),1.32 µg/mL
8,Cc1ccc(NCCC(=O)c2ccc([N+](=O)[O-])cc2)cc1C,1.06 µg/mL
9,Cn1c(=O)[nH]c2nnc(-c3ccccn3)nc2c1=O,> 50 µg/mL (inactive)
10,O=C1C(=O)N(Cc2ccccc2Cl)c2ccc(Br)cc21,3.79 µg/mL
11,COc1ccccc1-c1c(C)oc2cc(OCc3ccccc3)ccc2c1=O,9.15 µg/mL
12,Cn1c(Sc2ccc([N+](=O)[O-])c3cccnc23)nnc1-c1ccccc1,0.8 µg/mL
13,Cc1cc(Br)cc2c1N(CCCOc1ccccc1)C(=O)C2=O,9.2 µg/mL
14,Cc1cccc(NC(=O)Nc2ccc(C(F)(F)F)cc2)c1,8.07 µg/mL
15,Cn1nc([N+](=O)[O-])nc1Oc1ccc(C(C)(C)C)cc1,< 0.1 µg/mL
16,Cc1cccc(C(C)(C)C)c1OCCOCCn1ccnc1,3.97 µg/mL
17,CN1CCN(c2ccc(NC(=S)NC(=O)c3ccc(-c4cccc(Cl)c4)o3)cc2)CC1,0.38 µg/mL
18,CC(C)c1ccc(NCCC(=O)c2cccs2)cc1,6.34 µg/mL
19,CCCc1cc2c(-c3ccccc3)cc(=O)oc2cc1OCC(=O)OC,5.24 µg/mL
20,O=C(NCCc1ccc(F)cc1)NC12CC3CC(CC(C3)C1)C2,0.21 µg/mL
21,O=C(Nc1ccc(OCC(F)(F)C(F)F)c(C(F)(F)F)c1)c1ccccc1O,5.26 µg/mL

row,Structure (SMILES),IC50
1,CCCCc1cc(=O)oc2cc(OCC(=O)OCc3ccccc3)c(Cl)cc12,< 0.1 µg/mL
2,Cc1ccc(S(=O)(=O)Nc2ccc(NC(=O)Nc3cccc(C(F)(F)F)c3)cc2)cc1,1.13 µg/mL
3,Cn1c(NC(=O)c2ccccc2)nc2ccccc21,0.57 µg/mL
4,CCCCNCCOc1ccc2ccccc2c1Br,7.65 µg/mL
5,Cc1sc(NC(=O)c2cc3ccccc3oc2=O)c(C(=O)OC(C)C)c1C,0.66 µg/mL
6,Clc1ccc2[nH]c3c(c2c1)CCc1cn[nH]c1-3,> 50 µg/mL (inactive)
7,CCN(CC)C(=S)NC(=O)c1ccc(Cl)cc1,1.43 µg/mL
8,O=C(NC1CCCCC1)c1cccc(N2C(=O)c3cccc4c([N+](=O)[O-])ccc(c34)C2=O)c1,0.39 µg/mL
9,O=C(NCc1ccc(Cl)c(Cl)c1)C(Cl)Cl,10.6 µg/mL
10,COc1nc(SC)nc2sc3c(c12)CCC3,1.47 µg/mL
11,COC(=O)COc1ccc2cc(-c3ccc(Cl)cc3)c(=O)oc2c1,18.8 µg/mL
12,Cc1cccc(C(=O)Nc2nc3ccccc3[nH]2)c1,0.74 µg/mL
13,O=C(Oc1ccc(Cl)c2cccnc12)c1ccccc1Br,> 50 µg/mL (inactive)
14,CCc1ccccc1-n1c(=O)oc2ccc(Cl)cc2c1=O,1.37 µg/mL
15,CC1(C)COC(/C=C/c2cccc([N+](=O)[O-])c2)=N1,11.6 µg/mL
16,COC(=O)COc1ccc2c(=O)c(Oc3ccccc3)c(C(F)(F)F)oc2c1,6.6 µg/mL
17,CCN1CCN(c2ccc(NC(=O)CC34CC5CC(CC(C5)C3)C4)cc2Cl)CC1,49.4 µg/mL
18,Cc1ccc([N+](=O)[O-])cc1NC(=O)c1cc(Cl)ccc1O,29.7 µg/mL
19,CCOC(=O)COc1ccc(S(=O)(=O)Nc2cccc(SC)c2)cc1,3.69 µg/mL
20,CCCn1c(NCc2ccc(Br)cc2)nc2ccccc21,4.3 µg/mL
21,Cc1cccc(OCC(O)CN2CCN(C(c3ccccc3)c3ccccc3)CC2)c1C (centres undefined),2.94 µg/mL
